The values below come from patent publication US20220088044A1, “SUBSTANCES FOR TREATMENT OF CORONAVIRUS INFECTION” (ScandiBio Therapeutics AB, priority 2020, published 2022).

The structures appear in SMILES notation. Like-named read-outs stand apart in the source and are kept apart here. Some results are limits rather than exact numbers.

Data set [1] has as its system patients with chronic hepatitis C. The following applies: 2 grams 2 times a day, compared to placebo; cited from earlier work.
Data set [2] has as its system patients with community-acquired pneumonia. The following applies: compared to conventional therapy; cited from earlier work.
Data set [3] has as its system HIV patients. The settings on record: cited from earlier work.
The conditions of data set [4]: cited from earlier work.
The subject of data set [5] is COPD exacerbations. The following applies: in vivo; cited from earlier work.
For data set [6], the system named is acute respiratory distress syndrome (ARDS). The settings on record: human, in vivo; cited from earlier work.
Data set [7] concerns epithelial cells exposed to the H5N1 influenza A virus. The following applies: cited from earlier work.
The conditions of data set [8]: cited from earlier work. The source holds these as a separate data set.
Data set [9] concerns LPS-induced acute lung injury. The following applies: in vivo; cited from earlier work.
The conditions of data set [10]: cited from earlier work. This is another data set of the same source.
The test system of data set [11] is blood NAD+. The following applies: cited from earlier work.
Data set [12] has as its system blood NAD+. The settings on record: cited from earlier work. This is another data set of the same source.
Data set [13] concerns adults with hereditary sensory and autonomic neuropathy type 1 (HSAN1). The following applies: 400 mg/kg/day, long-term (one to two years); cited from earlier work.
Data set [14] concerns traumatic brain injury. The settings on record: mouse, in vivo; cited from earlier work.
Data set [15] deals with obese subjects with hepatic steatosis. In words: Short-term dietary supplementation with serine in obese subjects with hepatic steatosis. Type of data set: in vivo, human. As to the method: To test the model-based predictions, we assessed the effect of short-term dietary supplementation with serine on fatty liver and fasting levels of plasma markers of liver functions in six obese subjects (BMI 32.5±2.70 kg/m2) with hepatic steatosis. Each patient received one oral dose of ˜20 g of L-serine (200 mg/kg) per day for 14 days. The supplementation was well-tolerated by all subjects. […] We examined the concept by testing if supplementation of GSH and NAD+ precursors for two weeks would decrease high fat diet induced liver fat accumulation in mice. Therefore, we gave serine 300 mg/kg/day and nicotinamide riboside (NR) 400 mg/kg/day la gavage as well as 1 g/l of NAC (N-acetyl-L-cysteine) in the drinking water for 14 days to high fat diet-fed mice.

The conditions of data set [16]: cited from earlier work. This is another data set of the same source.
The subject of data set [17] is Pasteurella multocida infection. The settings on record: mouse, in vivo; cited from earlier work.
For data set [18], the system named is aging mice. The settings on record: mouse, in vivo; cited from earlier work.
Data set [19] deals with lamb model with increased pulmonary blood flow. The settings on record: chronic treatment; cited from earlier work.
For data set [20] the following is noted: cited from earlier work. The source holds these as a separate data set.
The test system of data set [21] is acute myocardial infarction. The settings on record: five controlled trials, n=3108; cited from earlier work.
The conditions of data set [22]: cited from earlier work. This is another data set of the same source.
The conditions of data set [23]: cited from earlier work. The source holds these as a separate data set.
The test system of data set [24] is premature new-borns. The following applies: 20 mg/kg/day; cited from earlier work.
In data set [25] the test system is mice. The following applies: cited from earlier work.
For data set [26] the following is noted: after ingestion of supplemental nicotinamide; cited from earlier work.

As for `CC(=O)O[C@H](CC(=O)[O-])C[N+](C)(C)C` [Acetyl-L-Carnitine], in data set [1], the “daily activity and fatigue” value is recorded as “increase daily activity in patients, reduce fatigue”.
A word on the half-life: it is the time in which the quantity being followed falls by half. For the compound `CC(=O)N[C@@H](CS)C(=O)O` [NAC, N-acetylcysteine], in data set [2], the “inflammatory response and oxidative stress” value was “improves inflammatory response and oxidative stress”. Moreover, in data set [3] (900 mg or 1800 mg twice daily), the “glutathione levels in red blood cells” value is “increased significantly” and the “red blood cell oxidized glutathione levels” value is “decreased significantly”. Further, in data set [3] (both doses compared to placebo), the “glutathione: glutathione disulfide (GSH:GSSG) ratios” value is recorded as “generally non-significant increased”. The safety profile entry in [4] (HIV-infected patients, oral 6,000-8,000 mg daily for several months) is given as “good safety profile”. Further, the safety in humans entry in data set [4] (daily dosage of 4-6 grams) is recorded as “shown to be safe”. The “serious adverse events or signs of intoxication” value in data set [4] (even at very high doses) is “serious adverse events or signs of intoxication are not observed”. The “incidence of most common adverse reactions (rash, urticaria/facial flushing, pruritus, nausea and vomiting)” value in data set [4] (in vivo) was “greater than 2%”. Further, the “anaphylactic reactions, share of people” value in data set [4] (within 30 min after IV loading dose) is given as 3-6%. For the same compound, the “number and effect of COPD exacerbations” value in data set [5] was “reduce the number and effect of COPD exacerbations”. Also, in [6], the “duration of stay in intensive care” value is given as “has been shortened” and the “short-term mortality or 30-day mortality” value is “did not contribute to reducing short-term mortality or 30-day mortality”. In addition, the inflammatory response entry in [7] was “reduce”. For the same compound, the half-life in data set [8] (adults) was 5.6 to 6 h. The “time to peak plasma concentration” value in data set [8] (after application) was 30 to 60 min. In addition, in data set [8] (after oral administration), the absorption entry is listed as “rapidly absorbed” and the “share of amount passed to the blood determined in the lungs” value was 48%. In addition, in data set [8] (in vivo), the “distribution volume (Vd)” value is 0.33 to 0.47 L/kg; the “excreted in urine in the form of sulfate and taurine” value is recorded as 22-30%; the “rate of binding to plasma proteins” value was “about 50%”. Besides, the “effect of food intake” value in data set [8] (oral) is on record as “not affected”.
On to `O=C(O)c1cccnc1` [niacin], for which, in data set [9], the “LPS-induced acute lung injury” value was “alleviate LPS-induced acute lung injury”.
On to `NC(=O)c1ccc[n+]([C@@H]2O[C@H](CO)[C@@H](O)[C@H]2O)c1` [NR, Nicotinamide riboside], for which, in data set [10] (90-day study), the “lowest observed adverse effect level” value was 1000 mg/kg/day and the “no observed adverse effect level” value was 300 mg/kg/day. In data set [10] (oral dose of 5000 mg/kg), the mortality entry was “no mortality”. Moreover, the “blood NAD+ metabolome” value in data set [11] (single doses of 100, 300 and 1,000 mg) is on record as “dose-dependent increases”. For the same compound, the “rise of human blood NAD+” value in data set [11] (single oral dose, pilot study) is at most 2.7 fold. Further, the tolerability entry in [12] (oral, 250 mg up-titrated to 1000 mg twice daily, 9 days) is reported as “well tolerated with no adverse events”. The “increase of blood NAD+, baseline to steady state” value in data set [12] (p=0.001) is on record as 100%. For the same compound, in data set [12] (p=0.03), the “whole-blood NR, baseline to mean concentration at steady state” value is listed as “Significant increases”.
On to `N[C@@H](CO)C(=O)O` [L-serine], for which the “adverse effects (vital signs, physical examination, clinical laboratory)” value in data set [13] was “did not reveal adverse effects”. The neuroprotection entry in [14] is reported as “lead to neuroprotection”. Also, in [15] (after 14 days supplementation), the “ALT, AST, and ALP levels” value is listed as “significantly decreased”. The liver fat in data set [15] (after ~20 g L-serine (200 mg/kg) oral per day for 14 days, decreased significantly from 26.8±6.0%) is recorded as 20.4±7.0%. Besides, the tolerability result in [15] (~20 g L-serine per day for 14 days) is listed as “well-tolerated”. In data set [16] (doses up to 400 mg/kg/day (around 25-30 g/day)), the safety in humans result is on record as “shown to be safe”. In addition, the safety in pregnancy entry in data set [16] (three daily doses of 5 g (190 mg/kg), pre- and postnatal treatment of 3-phosphoglycerate-dehydrogenase deficiency) is “safe even in pregnancy”. For the same compound, the “macrophage- and neutrophil-mediated inflammatory responses” value in data set [17] is “decrease the macrophage- and neutrophil-mediated inflammatory responses”. Besides, the “body weight, oxidative stress and inflammation” value in data set [18] is “reduce body weight by decreasing orexigenic peptide expression and reduces oxidative stress and inflammation”.
With `C[N+](C)(C)C[C@H](O)CC(=O)[O-]` [L-carnitine], in data set [19], the “lung carnitine homeostasis, oxidative stress, mitochondrial and endothelial function” value was “alleviates changes in lung carnitine homeostasis, reduces associated oxidative stress, and improves pulmonary mitochondrial function, NO signalling and eventually endothelial function”. Moreover, in data set [20], the solubility in acetone entry is “insoluble” and the “solubility in water, hot alcohol” value is recorded as “readily soluble”. The “heart failure, unstable angina, or myocardial reinfarction: daily 2 g versus 6 g” value in [21] is “no significant differences”. In addition, in data set [22] (in vivo), the absolute bioavailability is on record as 15-16%, the “faecal excretion of total carnitine” value is on record as “less than 1 % of the administered dose”, the “mean apparent terminal elimination half-life” value was 17.4 h and the mean distribution half-life was around 0.6 h. In addition, in data set [22] (in vivo), the “removal from plasma by dialysis” value was “easily removed from plasma by dialysis” and the “total body clearance (Dose/AUC including endogenous baseline concentrations), mean” value is on record as 4.00 L/h. In addition, in data set [22] (tested at any concentration), the “binding to plasma protein or albumin” value is recorded as “not bound”. Besides, in data set [23] (in vivo), the tolerability entry was “usually well tolerated” and the “toxicity from over dosage” value was “no reports of toxicity”.
As to `C[N+](C)(C)CC(O)CC(=O)[O-]` (stereo not shown) [carnitine], the “total carnitine concentrations in plasma and red blood cells” value in data set [24] was “increases total carnitine concentrations in plasma and red blood cells”. Also, in data set [23] (doses of approximately 3 g/day), the side effects result is “nausea, vomiting, abdominal cramps, diarrhoea, and a “fishy” body odor”.
With `CC(=O)N[C@@H](CSN=O)C(=O)O` [SNOAC, S-nitroso-N-acetylcysteine], in data set [25] (in vitro and in vivo), the “expression of several important genes” value is “induced a hypoxia-like response”. In addition, the “blood pressure in lungs and right ventricle (pulmonary artery hypertension)” value in [25] (metabolite formed in mice treated with acetylcysteine) was “increased blood pressure in the lungs and right ventricle of the heart”.
On to `NC(=O)c1cccnc1` [nicotinamide], for which the “flushing or glucose intolerance” value in [26] is recorded as “no cases of flushing or glucose intolerance have been reported”.
